Test results as given in patent publication US6677329B1, “Non-aromatic estrogenic steroids with a hydrocarbon substituent in position 11” (Akzo Nobel N V., priority 1999, dated 2004).

Legend:
[1] = molecular target: T1, human estrogen receptor α (hERα) (Homo sapiens, UniProt P03372); experiment: transactivation assay in recombinant CHO cells (rat oxytocin promoter, luciferase reporter), α; assay type: cell-based; settings: potency ratio, in percentage of the action of the reference compound in the assay
T1 construct: expressed in transfected cells; host or cells: CHO cells, line CHO-ERRO 2B1-1E9, with rat oxytocin promoter and luciferase reporter
T1 sequence (P03372 1-595): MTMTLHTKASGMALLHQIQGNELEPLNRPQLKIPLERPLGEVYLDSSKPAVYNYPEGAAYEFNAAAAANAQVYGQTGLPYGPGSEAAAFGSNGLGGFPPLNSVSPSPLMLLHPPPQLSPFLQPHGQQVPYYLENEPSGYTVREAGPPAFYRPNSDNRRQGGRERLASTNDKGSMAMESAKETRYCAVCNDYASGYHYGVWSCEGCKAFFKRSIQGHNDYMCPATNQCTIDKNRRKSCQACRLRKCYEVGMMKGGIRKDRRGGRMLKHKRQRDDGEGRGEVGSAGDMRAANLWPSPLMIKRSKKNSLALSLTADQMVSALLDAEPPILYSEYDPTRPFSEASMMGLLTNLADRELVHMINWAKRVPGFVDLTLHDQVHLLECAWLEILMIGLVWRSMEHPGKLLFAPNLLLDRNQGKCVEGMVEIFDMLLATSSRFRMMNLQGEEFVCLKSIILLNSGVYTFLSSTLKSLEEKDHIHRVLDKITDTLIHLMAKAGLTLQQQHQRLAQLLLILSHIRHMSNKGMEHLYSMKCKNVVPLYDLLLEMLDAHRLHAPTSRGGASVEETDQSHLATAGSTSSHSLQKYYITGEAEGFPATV
Experimental: (§1) Compounds are tested for their estrogen receptor activity in a binding assay and in a transactivation assay.
(§2) The antiestrogenic activity of compounds is determined in an in vitro bioassay with recombinant Chinese hamster ovary (CHO) cells stably co-transfected with the human estrogen receptor α (hERα) or β receptor (hERβ), the rat oxytocin promoter (RO) and the luciferase reporter gene (LUC). The antiestrogenic activity (potency ratio) of a test compound to inhibit the transactivation of the enzyme luciferase mediated via the estrogen receptor by the estrogen Org 2317 (estradiol, 1, 3, 5 (10)-estratriene-3,17β-diol) is compared with the standard Org 34790 (ICI 164.384; (7α,17β)-N-butyl-3,17-dihydroxy-N-methylestra-1,3,5 (10)-triene-7-undecanamide).
(§3) Test medium: Intact recombinant CHO cells stably co-transfected with the human estrogen receptor, the rat oxytocin promoter and the luciferase reporter gene. The cell line has been produced within the Department of Biotechnology and Biochemistry (BBC) (N.V. Organon) and is known under the name CHO-ERRO 2B1-1E9.
(§4) The data are expressed in percentage of the action of the reference compound in the assay

[2] = molecular target: T2, human estrogen β receptor (hERβ) (Homo sapiens, UniProt Q92731); experiment: transactivation assay in recombinant CHO cells (rat oxytocin promoter, luciferase reporter), β; assay type: cell-based; settings: potency ratio, in percentage of the action of the reference compound in the assay
T2 construct: expressed in transfected cells; host or cells: CHO cells with rat oxytocin promoter and luciferase reporter (no ERβ line named)
T2 sequence (Q92731 whole entry): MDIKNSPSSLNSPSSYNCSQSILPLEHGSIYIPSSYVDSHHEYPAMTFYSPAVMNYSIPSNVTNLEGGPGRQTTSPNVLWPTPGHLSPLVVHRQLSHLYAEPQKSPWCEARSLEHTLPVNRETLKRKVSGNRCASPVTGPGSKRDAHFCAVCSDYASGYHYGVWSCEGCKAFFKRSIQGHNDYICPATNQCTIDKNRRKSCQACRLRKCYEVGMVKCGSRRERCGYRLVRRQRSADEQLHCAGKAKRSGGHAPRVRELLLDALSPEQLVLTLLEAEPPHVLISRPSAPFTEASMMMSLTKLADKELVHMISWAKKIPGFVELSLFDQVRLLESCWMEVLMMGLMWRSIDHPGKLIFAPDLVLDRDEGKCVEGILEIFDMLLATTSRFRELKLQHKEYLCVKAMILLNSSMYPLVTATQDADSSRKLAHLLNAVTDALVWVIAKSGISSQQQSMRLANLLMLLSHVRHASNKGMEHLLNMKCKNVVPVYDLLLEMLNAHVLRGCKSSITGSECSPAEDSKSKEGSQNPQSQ
Experimental: as §1, §2, §3, §4

[3] = molecular target: T1, human estrogen receptor α (hERα); experiment: competitive binding to cytoplasmic human estrogen receptor from recombinant CHO cells (α-binding); settings: relative affinity (potency ratio), in percentage of the action of the reference compound in the assay; cytosol of recombinant CHO cells
Experimental: (§5) Compounds are tested for their estrogen receptor activity in a binding assay and in a transactivation assay. Determination of competitive binding to cytoplasmic human estrogen receptor from rec.CHO cells is used to estimate the relative affinity (potency ratio) of a test compound for estrogen receptors present in the cytosol of recombinant Chinese hamster ovary (CHO) cells, stably transfected with the human estrogen receptor, as compared with estradiol (E2). Cytosol prepared from recombinant CHO cells, stably transfected with the human estrogen receptor. The cell line has been made within the Department of Biotechnology and Biochemistry (BBC) (N.V. Organon) and is known under the name CHO-ER (2B1). Reference compounds are ethinylestradiol and estriol. The data are expressed in percentage of the action of the reference compound in the assay

[4] = molecular target: T2, human estrogen β receptor (hERβ); experiment: competitive binding to cytoplasmic human estrogen receptor from recombinant CHO cells (β-binding); settings: relative affinity (potency ratio), in percentage of the action of the reference compound in the assay; cytosol of recombinant CHO cells
Experimental: as §5

| Structure (SMILES) | α-transactivation [1] [percentage] | β-transactivation [2] [percentage] | α-binding. [3] | β-binding [4] [percentage] |
| --- | --- | --- | --- | --- |
| C#C[C@]1(O)CCC2C3CC[C@H]4C[C@H](O)CCC4C3[C@@H](CCF)C[C@@]21C (stereo partly drawn) [Compound 32, (3α,5α,11β,17β)-11-(2-fluoroethyl)-19-norpregn-20-yne-3,17-diol] | 2.4 | 0.1 | 2,6 percentage | <0.1 |
| C#C[C@]1(O)CCC2C3CCC4=C(CC[C@@H](O)C4)C3[C@@H](CCC=C)C[C@@]21C (stereo partly drawn) [Compound 42, (3α,11β,17β)-11-(3-butenyl)-I9-norpregn-5(10)-en-20-yne-3,17-diol] | 2 | <0.04 | 29 percentage | 0.1 |
| C#C[C@]1(O)CCC2C3C(C4=C(C[C@@H](O)CC4)C[C@H]3C)[C@@H](CCF)C[C@@]21C (stereo partly drawn) [Compound 54, (3β,7α,11β,17β)-11-(2-fluoroethyl)-7-methyl-19-norpregn-5(10)-en-20-yne-3,17-diol] | 29.7 | 1.0 | 27,5 percentage | 0.1 |
| C#C[C@]1(O)CCC2C3C(C4=C(C[C@H](O)CC4)C[C@H]3C)[C@@H](CCF)C[C@@]21C (stereo partly drawn) [Compound 55, (3α,7α,11β,17β)-11-(2-fluoroethyl)-7-methyl-19-norpregn-5(10)-en-20-yne-3,17-diol] | 61.5 | 1.9 | 36 percentage | 0.1 |
| C#C[C@]1(O)CCC2C3CC[C@H]4C[C@@H](O)CCC4C3[C@@H](C(F)F)C[C@@]21C (stereo partly drawn) [Compound 21, (3β,5α,11β,17β)-11-difluoromethyl-19-norpregn-20-yne-3,17-diol] | 7.7 | 0.1 | 8.6 percentage | 0.2 |
| C#C[C@]1(O)[C@H](C)CC2C3C(C(=C)C[C@@]21C)C1CC[C@H](O)C[C@@H]1C[C@H]3C (stereo partly shown) [Compound 81] | 27 | 0.1 |  |  |
| C#C[C@]1(O)CCC2C3CCC4=C(CC[C@H](O)C4)C3[C@@H](CCC=C)C[C@@]21C (stereo partly drawn) [Compound 43, (3β,11β,17β)-11-(3-butenyl)-19-norpregn-5(10)-en-20-yne-3,17-diol] | 1.3 | <0.1 | 11.9 percentage | 0.1 |
| C#C[C@]1(O)CCC2C3CCC4=C(CC[C@@H](O)C4)C3[C@@H](CC=C)C[C@@]21C (stereo partly drawn) [Compound 11, (3α,11β,17β)-11-(2-propenyl)-19-norpregn-5(10)-en-20-yne-3,17-diol] | 58 | 0.8 | 57 percentage | 1.1 |
| C#C[C@]1(O)CCC2C3CC[C@H]4C[C@@H](O)CCC4C3[C@@H](CCF)C[C@@]21C (stereo partly drawn) [Compound 31, (3β,5α,11β,17β)-11-(2-fluoroethyl)-19-norpregn-20-yne-3,17-diol] | 9.6 | 0.2 | 37 percentage | 0.1 |
